Experimental findings from PubChem BioAssay AID294 (DTP/NCI, 2004) are described below.

This assay deals with MX-1 breast xenograft, nude mice, tumor weight change. Put plainly: NCI In Vivo Anticancer Drug Screen. Data for tumor model Human Mammary Carcinoma MX-1 Xenograft (subcutaneous) in NU/NU Swiss (nude) mice. The conditions noted are these: endpoint: optimum tumor weight change, vehicle: Klucel (hydroxypropylcellulose) (HPC), higher = larger tumour. As to the method: The antitumor activity of compounds was measured in mice bearing transplantable tumors. Survival or tumor size were measured and the results are expressed as the measurement made in the treated group (T) divided by the measurement made in the vehicle treated control group (C). The tumor model used in this assay is Human Mammary Carcinoma MX-1 Xenograft (subcutaneous) in NU/NU Swiss (nude) mice
(A xenograft is tissue or cells of one species grown in another, often human tumour cells in immunodeficient mice.)

Turning to `CN(C)c1nc(N(C)C)nc(N(C)C)n1`, the T/C by setting is: (dose: 50.0 mg/kg/injection, schedule: Q04DX003 (ip)) 59 % of control; (dose: 60.0 mg/kg/injection, schedule: Q01DX005 (ip)) 15 % of control; (dose: 60.0 mg/kg/injection, schedule: Q07DX005 (ip)) 42 % of control; (dose: 100.0 mg/kg/injection, schedule: Q04DX003 (ip)) 47 % of control; (dose: 120.0 mg/kg/injection, schedule: Q01DX005 (ip)) 1 % of control; (dose: 120.0 mg/kg/injection, schedule: Q04DX005 (ip)) -38 % of control. Also, the T/C is, setting by setting: (dose: 200.0 mg/kg/injection, schedule: Q04DX003 (ip)) 1 % of control; (dose: 240.0 mg/kg/injection, schedule: Q07DX005 (ip)) -99 % of control.
